# Data taken from ChEMBL document CHEMBL1201862, “PubChem BioAssay data set” (2004).
# Active and inactive are the calls of the source.
# Key:
# [1] = NIH-3T3 fibroblast cytotoxicity, dose response, cytotoxicity control, cell-based, fluorescence, Alamar Blue, secondary assay (AID 2327); type: functional;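 note: NIH-3T3 mouse fibroblasts cultured with fluconazole at 8 µg/mL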
# [2] = C. albicans growth with fluconazole, confirmation, fluorescence, retest (AID 2467); type: functional, cell-based
# [3] = molecular target: ATP-dependent molecular chaperone HSP82 (Candida albicans (strain WO-1) (Yeast), UniProt C4YTQ8); test: loss of DOC-induced GRE-beta-galactosidase reporter signal, dose response, Hsp90 inhibitor project, S. cerevisiae, luminescence (AID 2400); type: functional, cell-based;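 note: beta-galactosidase luminescence from glucocorticoid response element reporter as proxy for Hsp90 function; inhibitor potency where signal loss means Hsp90 inhibition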
# Sequence of ATP-dependent molecular chaperone HSP82 (C4YTQ8 whole entry): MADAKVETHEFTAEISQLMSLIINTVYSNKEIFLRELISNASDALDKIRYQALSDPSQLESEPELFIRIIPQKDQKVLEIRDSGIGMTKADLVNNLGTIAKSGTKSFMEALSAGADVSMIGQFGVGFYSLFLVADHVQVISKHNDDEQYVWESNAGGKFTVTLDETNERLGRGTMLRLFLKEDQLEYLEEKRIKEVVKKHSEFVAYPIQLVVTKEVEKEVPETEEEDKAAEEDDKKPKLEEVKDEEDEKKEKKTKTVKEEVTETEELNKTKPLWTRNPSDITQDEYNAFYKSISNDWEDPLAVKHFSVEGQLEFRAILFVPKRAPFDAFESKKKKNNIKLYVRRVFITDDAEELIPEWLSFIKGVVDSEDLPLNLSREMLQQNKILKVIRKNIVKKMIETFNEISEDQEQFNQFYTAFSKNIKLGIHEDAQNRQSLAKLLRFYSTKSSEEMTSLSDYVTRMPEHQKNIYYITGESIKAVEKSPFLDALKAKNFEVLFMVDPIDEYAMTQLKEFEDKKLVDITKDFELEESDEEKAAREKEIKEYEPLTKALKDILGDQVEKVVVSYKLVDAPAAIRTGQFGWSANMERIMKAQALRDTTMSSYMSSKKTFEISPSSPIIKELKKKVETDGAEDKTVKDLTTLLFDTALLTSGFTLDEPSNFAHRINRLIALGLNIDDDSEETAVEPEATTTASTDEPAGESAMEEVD
# [4] = NIH-3T3 fibroblast cytotoxicity, dose response, cytotoxicity control for antifungal single agent project, cell-based, Alamar Blue, dry powder (AID 602188); type: functional
# [5] = Luminescence Cell-Based Dose Response HTS to Identify Inhibitors of 5'UTR Stem-Loop Driven Prion Protein mRNA Translation in H4 Neuroglioblastoma Cells. [Related pubchem assays: 1827 (Project Summary), 1813 (Primary HTS)]; type: functional
# Streptococcus = test: Group A Streptococcus viability loss, dose response, counter-screen for streptokinase expression inhibitor project, luminescence, BacTiterGlo (AID 1915); type: functional, organism-based;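 note: potency for reduction of bacterial viability or growth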
# [6] = molecular target: Serine/threonine-protein phosphatase (Candida dubliniensis (strain CD36 / CBS 7987 / NCPF 3949 / NRRLY-17841) (Yeast), UniProt B9W6M3); test: calcineurin pathway inhibitors in yeast reporter, dose response, S. cerevisiae, CDRE-lacZ, luminescence, secondary (AID 2388); type: functional, cell-based;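 note: yeast reporter cells carrying a calcineurin-responsive lacZ construct stimulated with calcium chloride; luminescent beta-galactosidase reporter signal in whole cells rather than isolated phosphatase activity; potency for inhibition where a drop in reporter signal means calcineurin blockade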
# Sequence of Serine/threonine-protein phosphatase (B9W6M3 whole entry): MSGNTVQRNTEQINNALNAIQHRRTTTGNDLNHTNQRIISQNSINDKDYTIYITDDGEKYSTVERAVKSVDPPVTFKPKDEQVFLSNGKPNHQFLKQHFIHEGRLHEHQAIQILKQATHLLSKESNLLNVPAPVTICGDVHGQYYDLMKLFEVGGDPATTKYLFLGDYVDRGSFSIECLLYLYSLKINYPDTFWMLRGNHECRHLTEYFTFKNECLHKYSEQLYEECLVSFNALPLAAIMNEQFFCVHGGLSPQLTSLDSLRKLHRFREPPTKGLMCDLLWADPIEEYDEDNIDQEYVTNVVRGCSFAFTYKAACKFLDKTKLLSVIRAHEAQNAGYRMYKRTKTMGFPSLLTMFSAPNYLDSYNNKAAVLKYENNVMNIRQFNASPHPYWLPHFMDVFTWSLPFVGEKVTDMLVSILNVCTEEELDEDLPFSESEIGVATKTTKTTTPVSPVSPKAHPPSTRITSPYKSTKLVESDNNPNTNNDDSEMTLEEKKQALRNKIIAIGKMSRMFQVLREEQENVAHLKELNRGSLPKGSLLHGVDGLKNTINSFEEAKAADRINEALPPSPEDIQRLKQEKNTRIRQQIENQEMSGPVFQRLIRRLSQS
# [7] = cytotoxicity toward NIH3T3 fibroblasts, dose response, counter-screen, cell-based, ATP luminescence, mouse fibroblasts (AID 2010); type: functional;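 note: cells exposed to compound for about 90 hours before reading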
# [8] = inhibitors of intracellular T. cruzi replication, confirmation, NIH3T3 host cells, beta-gal luminescence (AID 2044); type: functional, cell-based;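 note: intracellular parasites grown in NIH/3T3 mouse fibroblasts as host cells; luminescent beta-galactosidase reporter signal from transgenic T. cruzi replicating inside host cells; inhibitors lower the luminescence signal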
# [9] = system: Streptococcus sp. 'group A'; test: growth inhibition of control SK(-) GAS strain, dose response, counter-screen for streptokinase expression inhibitor project, luminescence, kanamycin, BacTiterGlo, confirmation (AID 1900); type: functional, organism-based
# [10] = inhibitors of firefly luciferase expression or activity, dose response, H4 neuroglioma cells, luminescence (AID 1990); type: functional, cell-based
# [11] = inhibitors of SNCA 5'UTR-driven reporter translation, confirmation, H4 neuroglioma cells, luminescence (AID 1988); type: functional, cell-based
# INS1 = test: beta cell apoptosis inhibitors, cytokine rescue, dose response, luminescence, retest (AID 449756); type: functional, cell-based; conditions: Rattus norvegicus;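 note: cell death triggered by IL-1 beta plus TNF-alpha plus IFN-gamma mixture; protective hits raise ATP signal compared with cytokine alone wells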
# [12] = molecular target: Potassium voltage-gated channel subfamily KQT member 2 (Rattus norvegicus, UniProt O88943); test: KCNQ2 potassium channel inhibitors, dose response, cell-based, automated electrophysiology, set II, rat KCNQ2 (AID 588637); type: functional
# [13] = molecular target: T1, Orexin/Hypocretin receptor type 1 (Homo sapiens, UniProt O43613); test: Fluorescence-based cell-based high throughput dose response assay for antagonists of the orexin 1 receptor (OX1R; HCRTR1). [Related pubchem assays (depositor defined):AID434989, AID435008, AID463079, AID485270, AID492963, AID492964, AID492965, AID493232, AID504717, AID504718]; type: functional
# T1 sequence (O43613 whole entry): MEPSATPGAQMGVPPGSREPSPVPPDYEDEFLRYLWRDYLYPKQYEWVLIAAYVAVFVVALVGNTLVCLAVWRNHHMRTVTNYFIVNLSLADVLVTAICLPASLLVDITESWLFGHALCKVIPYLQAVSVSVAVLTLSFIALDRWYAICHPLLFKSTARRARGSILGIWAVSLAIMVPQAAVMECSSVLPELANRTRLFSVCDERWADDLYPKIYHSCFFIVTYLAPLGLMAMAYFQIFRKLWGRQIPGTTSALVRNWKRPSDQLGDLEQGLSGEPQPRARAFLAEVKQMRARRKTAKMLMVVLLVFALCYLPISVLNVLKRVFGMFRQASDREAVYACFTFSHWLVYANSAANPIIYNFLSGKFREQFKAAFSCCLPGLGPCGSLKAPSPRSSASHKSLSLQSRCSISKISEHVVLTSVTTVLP
# [14] = molecular target: T1, Orexin/Hypocretin receptor type 1; test: Homogeneous Time Resolved Fluorescence (HTRF)-based cell-based high throughput dose response assay for antagonists of the orexin 1 receptor (OX1R; HCRTR1). [Related pubchem assays (depositor defined):AID434989, AID435008, AID463079, AID485270, AID492963, AID492964, AID492965, AID493232, AID504717, AID504718]; type: functional
# CHO-K1 = test: Counterscreen for antagonists of the orexin 1 receptor (OX1R; HCRTR1): Homogeneous time resolved fluorescence (HTRF)-based cell-based dose response assay to identify antagonists of the parental CHO-K1 cell line. [Related pubchem assays (depositor defined):AID434989, AID435008, AID463079, AID485270, AID492963, AID492964, AID492965, AID493232, AID504699, AID504701]; type: functional; conditions: Cricetulus griseus;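 note: potency for inhibition of ATP-stimulated IP1 production as antagonists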
# Orexin receptor type 2 [15] = molecular target: T2, Orexin receptor type 2 (Homo sapiens, UniProt O43614); test: Counterscreen assay for antagonists of the orexin 1 receptor (OX1R; HCRTR1): Homogeneous Time Resolved Fluorescence (HTRF)-based cell-based dose response assay for antagonists of the orexin 2 receptor (OX2R; HCRTR2), run by assay provider.; type: functional
# T2 sequence (O43614 whole entry): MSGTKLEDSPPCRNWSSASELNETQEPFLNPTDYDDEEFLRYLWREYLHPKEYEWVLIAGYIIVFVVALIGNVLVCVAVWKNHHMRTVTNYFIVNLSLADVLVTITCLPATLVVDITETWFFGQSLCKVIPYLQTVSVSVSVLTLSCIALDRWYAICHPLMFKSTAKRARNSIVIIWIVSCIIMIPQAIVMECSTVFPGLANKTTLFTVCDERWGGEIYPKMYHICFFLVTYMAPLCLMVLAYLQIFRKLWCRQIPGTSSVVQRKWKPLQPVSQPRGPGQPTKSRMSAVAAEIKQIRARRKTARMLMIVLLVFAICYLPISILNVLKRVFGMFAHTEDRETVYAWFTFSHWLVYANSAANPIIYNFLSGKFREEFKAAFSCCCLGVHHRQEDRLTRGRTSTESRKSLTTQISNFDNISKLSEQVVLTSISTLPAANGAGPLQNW
# Orexin receptor type 2 [16] = molecular target: T2, Orexin receptor type 2; test: Counterscreen assay for antagonists of the orexin 1 receptor (OX1R; HCRTR1): Fluorescence-based cell-based dose response assay for antagonists of the orexin 2 receptor (OX2R; HCRTR2), run by assay provider.; type: functional
# [17] = Counterscreen for antagonists of the orexin 1 receptor (OX1R; HCRTR1): Fluorescence-based cell-based high throughput dose response assay to identify antagonists of the parental CHO cell line. [Related pubchem assays (depositor defined):AID434989, AID435008, AID463079, AID485270, AID492963, AID492964, AID492965, AID493232, AID504699, AID504701]; type: functional
# [18] = molecular target: Melanin-concentrating hormone receptor 1 (Homo sapiens, UniProt Q99705); test: Late-stage fluorescence-based counterscreen for antagonists of the G-protein coupled receptor 7 (GPR7): cell-based dose response assay to identify antagonists of the melanin-concentrating hormone receptor 1 (MCHR1) Set 6.; type: functional
# Sequence of Melanin-concentrating hormone receptor 1 (Q99705 whole entry): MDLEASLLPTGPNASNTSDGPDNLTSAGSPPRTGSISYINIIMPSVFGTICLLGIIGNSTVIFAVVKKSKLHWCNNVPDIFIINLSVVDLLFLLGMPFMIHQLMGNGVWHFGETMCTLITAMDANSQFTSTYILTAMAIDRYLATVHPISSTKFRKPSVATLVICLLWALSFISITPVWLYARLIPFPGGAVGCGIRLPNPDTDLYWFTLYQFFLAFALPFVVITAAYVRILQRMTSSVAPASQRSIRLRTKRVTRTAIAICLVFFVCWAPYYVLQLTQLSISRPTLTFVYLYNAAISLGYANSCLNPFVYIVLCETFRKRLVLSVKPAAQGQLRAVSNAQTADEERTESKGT
# [19] = molecular target: T3, Neuropeptides B/W receptor type 1 (Homo sapiens, UniProt P48145); test: GPR7 antagonist potency, late-stage follow-up, cell-based, fluorescence, dose response, set 6 (AID 588583); type: functional
# T3 sequence (P48145 whole entry): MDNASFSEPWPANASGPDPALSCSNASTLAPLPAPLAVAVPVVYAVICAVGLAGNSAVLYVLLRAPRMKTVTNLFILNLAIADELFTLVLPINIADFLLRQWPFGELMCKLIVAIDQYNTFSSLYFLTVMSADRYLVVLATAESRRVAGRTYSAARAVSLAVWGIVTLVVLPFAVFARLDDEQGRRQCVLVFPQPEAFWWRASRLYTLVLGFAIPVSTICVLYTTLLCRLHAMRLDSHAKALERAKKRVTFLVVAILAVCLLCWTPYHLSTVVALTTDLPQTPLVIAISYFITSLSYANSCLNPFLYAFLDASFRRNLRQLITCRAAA
# [20] = molecular target: Ras and Rab interactor 1/Tyrosine-protein kinase ABL1 (Homo sapiens, UniProt P00519+Q13671); type: functional;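 note: biochemical TR-FRET dose-response test measuring inhibition of binding between Rin1 and Abl proteins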
# Sequence of Ras and Rab interactor 1/Tyrosine-protein kinase ABL1 (P00519 whole entry): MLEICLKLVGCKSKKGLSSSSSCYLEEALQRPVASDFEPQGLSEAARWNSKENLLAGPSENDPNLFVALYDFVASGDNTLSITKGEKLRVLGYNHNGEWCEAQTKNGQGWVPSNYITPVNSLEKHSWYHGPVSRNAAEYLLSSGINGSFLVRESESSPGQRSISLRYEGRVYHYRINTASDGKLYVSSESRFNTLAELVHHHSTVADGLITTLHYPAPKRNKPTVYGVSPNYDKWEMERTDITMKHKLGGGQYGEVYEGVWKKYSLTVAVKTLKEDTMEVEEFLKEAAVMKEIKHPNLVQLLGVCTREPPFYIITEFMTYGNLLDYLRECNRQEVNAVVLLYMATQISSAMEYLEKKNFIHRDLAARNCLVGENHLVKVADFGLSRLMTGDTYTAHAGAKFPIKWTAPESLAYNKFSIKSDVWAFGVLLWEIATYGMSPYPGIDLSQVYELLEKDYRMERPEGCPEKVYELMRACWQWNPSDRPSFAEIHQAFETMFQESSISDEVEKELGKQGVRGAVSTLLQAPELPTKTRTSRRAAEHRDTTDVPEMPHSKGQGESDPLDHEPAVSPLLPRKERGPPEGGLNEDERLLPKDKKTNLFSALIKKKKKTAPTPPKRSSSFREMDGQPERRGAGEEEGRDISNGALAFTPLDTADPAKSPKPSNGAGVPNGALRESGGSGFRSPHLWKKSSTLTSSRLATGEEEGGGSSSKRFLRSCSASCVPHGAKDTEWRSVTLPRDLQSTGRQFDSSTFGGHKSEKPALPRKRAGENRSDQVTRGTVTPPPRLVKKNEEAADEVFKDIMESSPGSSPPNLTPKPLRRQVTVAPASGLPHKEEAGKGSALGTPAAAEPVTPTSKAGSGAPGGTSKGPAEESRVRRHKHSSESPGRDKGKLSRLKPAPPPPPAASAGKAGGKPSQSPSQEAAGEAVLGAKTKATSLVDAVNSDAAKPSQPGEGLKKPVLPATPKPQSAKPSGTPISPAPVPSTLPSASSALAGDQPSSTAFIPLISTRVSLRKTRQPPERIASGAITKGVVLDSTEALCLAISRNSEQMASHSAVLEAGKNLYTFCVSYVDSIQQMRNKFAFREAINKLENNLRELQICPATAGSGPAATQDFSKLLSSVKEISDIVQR
# Sequence of Ras and Rab interactor 1/Tyrosine-protein kinase ABL1 (Q13671 whole entry): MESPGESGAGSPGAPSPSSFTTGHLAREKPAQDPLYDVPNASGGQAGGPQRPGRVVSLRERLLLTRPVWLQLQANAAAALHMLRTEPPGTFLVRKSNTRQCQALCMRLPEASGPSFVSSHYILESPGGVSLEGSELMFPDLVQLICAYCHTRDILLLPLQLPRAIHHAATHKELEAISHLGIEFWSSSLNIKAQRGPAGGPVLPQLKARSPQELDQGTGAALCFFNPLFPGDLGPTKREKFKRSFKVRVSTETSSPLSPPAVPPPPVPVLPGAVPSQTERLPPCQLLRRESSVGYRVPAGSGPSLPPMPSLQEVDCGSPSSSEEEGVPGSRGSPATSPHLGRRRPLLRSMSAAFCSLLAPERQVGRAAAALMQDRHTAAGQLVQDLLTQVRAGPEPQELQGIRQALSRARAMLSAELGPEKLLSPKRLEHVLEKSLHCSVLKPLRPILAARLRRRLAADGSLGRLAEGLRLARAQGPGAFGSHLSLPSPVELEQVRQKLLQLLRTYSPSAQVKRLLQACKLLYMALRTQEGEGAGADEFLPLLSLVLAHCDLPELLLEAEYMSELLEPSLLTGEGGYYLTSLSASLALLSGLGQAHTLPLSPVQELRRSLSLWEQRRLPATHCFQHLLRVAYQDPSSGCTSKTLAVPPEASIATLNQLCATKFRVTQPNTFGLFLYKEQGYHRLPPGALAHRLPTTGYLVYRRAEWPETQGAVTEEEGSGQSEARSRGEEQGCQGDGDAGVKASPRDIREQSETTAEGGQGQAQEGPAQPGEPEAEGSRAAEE
# HEK293 [21] = test: optical interference in Abeta FP readout, dose response, artefact control for IDE activator project, biochemical, fluorescence polarization (AID 588442); type: functional, cell-based; conditions: Homo sapiens
# Insulin-degrading enzyme [22] = molecular target: T4, Insulin-degrading enzyme (Homo sapiens, UniProt P14735); test: activators of endogenous IDE in HEK cells, dose response, cell-based, fluorescence polarization (AID 588439); type: functional
# T4 sequence (P14735 whole entry): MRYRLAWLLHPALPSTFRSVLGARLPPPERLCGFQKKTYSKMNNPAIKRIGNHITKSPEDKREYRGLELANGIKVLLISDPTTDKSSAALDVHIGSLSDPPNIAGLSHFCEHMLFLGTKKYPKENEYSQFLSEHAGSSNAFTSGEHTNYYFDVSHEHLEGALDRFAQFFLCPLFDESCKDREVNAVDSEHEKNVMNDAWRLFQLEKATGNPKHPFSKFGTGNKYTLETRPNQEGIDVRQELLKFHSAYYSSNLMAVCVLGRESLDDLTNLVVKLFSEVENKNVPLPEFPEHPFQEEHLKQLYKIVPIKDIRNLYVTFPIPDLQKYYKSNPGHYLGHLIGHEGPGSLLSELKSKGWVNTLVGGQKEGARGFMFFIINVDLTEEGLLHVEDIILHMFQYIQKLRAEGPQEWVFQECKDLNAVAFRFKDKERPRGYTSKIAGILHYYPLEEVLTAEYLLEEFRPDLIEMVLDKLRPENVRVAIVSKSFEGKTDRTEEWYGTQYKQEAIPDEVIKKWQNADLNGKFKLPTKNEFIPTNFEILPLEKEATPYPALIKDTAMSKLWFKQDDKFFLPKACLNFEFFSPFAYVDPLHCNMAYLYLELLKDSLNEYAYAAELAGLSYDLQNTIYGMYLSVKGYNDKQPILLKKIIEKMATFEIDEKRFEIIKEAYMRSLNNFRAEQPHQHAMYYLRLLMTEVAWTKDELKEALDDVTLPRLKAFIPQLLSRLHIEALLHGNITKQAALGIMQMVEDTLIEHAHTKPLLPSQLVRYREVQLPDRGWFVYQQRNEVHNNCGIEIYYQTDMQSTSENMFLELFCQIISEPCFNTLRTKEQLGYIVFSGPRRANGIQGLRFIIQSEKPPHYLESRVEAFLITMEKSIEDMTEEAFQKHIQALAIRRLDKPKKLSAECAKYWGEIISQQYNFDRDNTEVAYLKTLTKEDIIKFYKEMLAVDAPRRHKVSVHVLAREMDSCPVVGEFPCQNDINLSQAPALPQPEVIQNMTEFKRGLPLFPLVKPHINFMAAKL
# HEK293 [23] = test: HEK cell cytotoxicity by LDH release, dose response, cytotoxicity control for IDE activator project, fluorescence, HEK cells (AID 588440); type: functional, cell-based; conditions: Homo sapiens;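 note: cytotoxicity by LDH release measuring loss of membrane integrity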
# Insulin-degrading enzyme [24] = molecular target: T4, Insulin-degrading enzyme; test: activators of recombinant IDE enzyme, dose response, counter-screen for IDE activator project, biochemical, fluorescence polarization (AID 588681)
# Aurora kinase B = Aurora kinase B (Homo sapiens, UniProt Q96GD4); type: functional
# Sequence of Aurora kinase B (Q96GD4 whole entry): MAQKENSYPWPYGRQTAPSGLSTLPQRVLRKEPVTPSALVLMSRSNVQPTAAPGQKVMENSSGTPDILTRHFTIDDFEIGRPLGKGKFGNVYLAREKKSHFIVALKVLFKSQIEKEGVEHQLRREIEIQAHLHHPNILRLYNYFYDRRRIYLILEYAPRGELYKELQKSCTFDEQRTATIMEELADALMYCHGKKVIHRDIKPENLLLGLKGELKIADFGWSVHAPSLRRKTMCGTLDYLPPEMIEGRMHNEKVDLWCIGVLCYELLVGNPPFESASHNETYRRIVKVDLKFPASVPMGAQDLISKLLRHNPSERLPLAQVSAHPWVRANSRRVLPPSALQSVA
# Melanocortin receptor 4 = Melanocortin receptor 4 (Homo sapiens, UniProt P32245); type: functional, cell-based;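 note: Cell-based assay with luminescence read-out, confirmatory dose-response testing for agonist activity of biased ligands at MC4R; human U2OS cells with tagged receptor and beta-arrestin; potency of agonists that increase receptor coupling to beta-arrestin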
# Sequence of Melanocortin receptor 4 (P32245 whole entry): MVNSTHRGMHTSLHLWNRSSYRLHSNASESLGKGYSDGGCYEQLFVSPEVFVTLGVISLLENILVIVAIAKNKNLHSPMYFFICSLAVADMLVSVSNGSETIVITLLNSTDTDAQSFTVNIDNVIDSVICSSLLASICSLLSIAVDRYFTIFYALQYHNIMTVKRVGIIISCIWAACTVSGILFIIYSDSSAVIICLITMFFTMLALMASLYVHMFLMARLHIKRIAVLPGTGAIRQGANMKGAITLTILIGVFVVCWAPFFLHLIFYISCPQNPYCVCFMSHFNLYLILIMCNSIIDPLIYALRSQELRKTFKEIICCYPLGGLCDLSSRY
# [25] = molecular target: Benomyl/methotrexate resistance protein (Candida albicans, UniProt P28873); test: CaMdr1 efflux pump inhibitor potency, dose response, singleplex, Cherry Pick1 hits (AID 588608); type: functional
# Sequence of Benomyl/methotrexate resistance protein (P28873 whole entry): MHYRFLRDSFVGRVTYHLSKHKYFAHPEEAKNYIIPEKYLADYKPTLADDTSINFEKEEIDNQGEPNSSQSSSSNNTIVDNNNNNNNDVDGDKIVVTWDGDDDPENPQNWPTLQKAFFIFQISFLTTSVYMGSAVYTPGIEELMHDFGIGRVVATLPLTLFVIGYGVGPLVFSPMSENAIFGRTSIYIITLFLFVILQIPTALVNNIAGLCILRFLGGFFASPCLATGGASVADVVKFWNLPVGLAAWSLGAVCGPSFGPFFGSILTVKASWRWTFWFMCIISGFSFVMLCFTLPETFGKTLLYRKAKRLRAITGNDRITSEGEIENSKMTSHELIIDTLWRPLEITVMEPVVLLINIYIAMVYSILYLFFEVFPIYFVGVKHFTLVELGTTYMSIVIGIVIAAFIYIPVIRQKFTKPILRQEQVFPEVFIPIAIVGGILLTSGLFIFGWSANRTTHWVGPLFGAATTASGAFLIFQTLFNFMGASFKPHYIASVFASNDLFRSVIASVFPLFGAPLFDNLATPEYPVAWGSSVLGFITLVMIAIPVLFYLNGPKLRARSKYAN
structure (smiles),measurement,setting,value
CN1CCN(C(c2ccc(C(F)(F)F)cc2)c2ccc3cccnc3c2O)CC1 (stereo not drawn),EC50,[1],> 150 µM (inconclusive)
same,EC50,[2],0.676 µM (active)
same,EC50,[3],14 µM (active)
same,AC50,[4],6.73 µM (active)
same,EC50,[5],10.3 µM (active)
same,EC50,Streptococcus,2.91 µM (active)
same,EC50,[6],> 180 µM (inactive)
same,EC50,[7],7.46 µM (active)
same,EC50,[8],1.64 µM (active)
same,EC50,[9],2.92 µM (active)
same,EC50,[10],9.1 µM (active)
same,EC50,[11],8.06 µM (active)
same,AC50,INS1,2.43 µM (active)
O=C(COc1ccc(Cl)cc1Cl)N(c1ccccn1)C1CCCCC1,IC50,[12],0.0699 µM (active)
C=CCNC(=O)CCC(=O)NNc1nc2ccccc2c2nc(-c3ccccc3)nn12,IC50,[13],6.87 µM (active)
same,IC50,[14],1.2 µM (active)
same,IC50,CHO-K1,> 66.2 µM (inactive)
same,IC50,Orexin receptor type 2 [15],> 50 µM (inactive)
same,IC50,Orexin receptor type 2 [16],> 88.8 µM (inactive)
same,IC50,[17],> 49.7 µM (inactive)
CC(C#N)c1c(Cl)cnn(Cc2cccc3ccccc23)c1=O (stereo not drawn),IC50,[18],3.1 µM (active)
same,IC50,[19],3.1 µM (active)
CCOC(=O)C1CCCN(C(=O)c2cn(C)c(=O)c3cc(OC)c(OC)cc23)C1 (stereo not drawn),IC50,[20],14.1 µM (inactive)
Cc1ccc2nc(N(CCCN(C)C)C(=O)COc3ccc(Cl)cc3)sc2c1,EC50,HEK293 [21],> 54.7 µM (inactive)
same,EC50,Insulin-degrading enzyme [22],> 54.7 µM (inactive)
same,IC50,HEK293 [23],46.4 µM (inactive)
same,EC50,Insulin-degrading enzyme [24],> 54.7 µM (inactive)
N#CC(c1c(Cl)cnn(Cc2cccc3ccccc23)c1=O)c1csc2ccccc12 (stereo not drawn),IC50,[18],> 20 µM (inactive)
same,IC50,[19],> 20 µM (inactive)
COc1ccc(N(CC(=O)NCCc2cccc(C)c2)S(=O)(=O)c2c(C)noc2C)cc1,IC50,[13],7.14 µM (active)
same,IC50,[14],0.653 µM (active)
same,IC50,CHO-K1,> 66.2 µM (inactive)
same,IC50,Orexin receptor type 2 [15],2.27 µM (active)
same,IC50,Orexin receptor type 2 [16],> 88.8 µM (inactive)
same,IC50,[17],> 49.8 µM (inactive)
O=C(O)c1ccccc1Nc1ccnc(Nc2ccc(O)cc2)n1,Ki,Aurora kinase B,0.002 µM (active)
CC(=O)Nc1cc(-c2ccc(CO)cc2)cn2c(-c3cccc(C(F)(F)F)c3)cnc12,EC50,Melanocortin receptor 4,> 89.2 µM (inactive)
Cc1cccc(C)c1-n1c(SCC(=O)N2CC(=O)Nc3ccccc32)nc2ccccc2c1=O,EC50,[25],0.01 µM (active)
